Source: ChEMBL document CHEMBL1129767, “Synthesis and properties of 25 and 35 linked -oligoriboadenylates” (Bioorg Med Chem Lett, 1996)

How the values were obtained:
Type in all cases: ADME
[1] = Biological half life period of compound was measured against snake venom phosphodiesterase (SVPDE); settings: serpentes
[2] = Biological half life period of compound was measured against RNaseT2; NC: Not cleaved
[3] = Biological half life period of compound was measured against nuclease P1;NC: Not cleaved
[4] = Biological half life period of compound was measured against RNaseT2; N C: Not cleaved
[5] = Biological half life period of compound was measured against nuclease P1.
[6] = Biological half life period of compound was measured against RNaseT2.; settings: RNase T2

Structure (SMILES) | half-life [1] [min] | T1/2 [2] | T1/2 [3] | T1/2 [4] | half-life [5] [min] | half-life [6] [min]
Nc1ncnc2c1ncn2C1OC(COP(=O)(O)O[C@@H]2[C@H](O)[C@@H](CO)O[C@@H]2n2cnc3c(N)ncnc32)[C@@H](O)[C@H]1O (single isomer, unassigned) | 18 | Not cleaved | Not cleaved | – | – | –
Nc1ncnc2c1ncn2C1OC(COP(=O)(O)O[C@@H]2C(CO)O[C@H](n3cnc4c(N)ncnc43)[C@@H]2O)[C@@H](O)[C@H]1O (single isomer, unassigned) | 31.8 | – | – | Not cleaved | 120 | –
Nc1ncnc2c1ncn2C1O[C@H](COP(=O)(O)O[C@H]2[C@@H](O)[C@H](n3cnc4c(N)ncnc43)O[C@@H]2CO)[C@@H](O)[C@H]1O (some centres not stated) | 3.6 | – | – | – | 7.8 | 12.6
Nc1ncnc2c1ncn2C1O[C@H](COP(=O)(O)O[C@@H]2[C@H](O)[C@@H](CO)O[C@H]2n2cnc3c(N)ncnc32)[C@@H](O)[C@H]1O (some centres not stated) | 3.6 | – | Not cleaved | Not cleaved | – | –
